The values that follow come from patent US6331555A, “Treatment of platelet derived growth factor related disorders such as cancers” (priority 1999, dated 2001).

Values joined by “and” are separate entries in the source; they are usually repeats but may differ in a detail not shown here. Equal values may be shown once. Read-outs that look alike come from different tables or passages of the source.

In assay [1] the test system is PDGFR. Briefly: Receptor tyrosine kinase inhibition, PDGFR. Type of assay: cell-based. The method, then:
(§1) For western blotting, cells were plated in 2 mL growth medium into 6-well dishes (500,000 cells per well) and allowed to attach overnight. […] The plates were then incubated overnight at 37° C., ambient CO2. […] After a 7 min incubation at room temperature with ligand, the plates were put on ice and washed three times with 1 mL ice-cold PBS plus 1 mM orthovanadate. Lysis was achieved by pipetting cells in 0.5 mL of buffer containing 50 mM Tris, pH 7.4, 10% glycerol, 1% NP-40, 2 mM EDTA, 1 mM sodium vanadate (Na3 VO4), 10 mM pyrophosphate, 1 mM PMSF, […]. A 300 μL aliquot of each lysate was immediately added to 100 μL 4×Laemmli sample buffer ([…] Tris pH 6.9, 20% glycerol, 7% SDS, 5 mM EDTA, 5% β-mercaptoethanol) containing phosphatase inhibitors, 2 mM Na3 VO4 and 10 mM pyrophosphate. Samples were boiled for 5 min, frozen in dry ice-ethanol, and stored at -80° C. […] The integrity of the protein-to-membrane transfer was determined by staining with 1% Ponceau S in 5% acetic acid for 5 min. After destaining in several distilled water rinses, the membrane was soaked overnight in blocking buffer containing 5% milk in Tris-buffered saline, 0.05% Tween 20. Phosphotyresine was detected by incubating the membrane (1 hr at room temperature) with an anti-phosphotyosine antiserum diluted in blocking buffer at 1:3000. […] The antibodies were visualized using ECL reagent from Amersham and by exposure to Fuji RX film.
(§2) For ELISA assays, cells were grown to 80-90% confluency in growth medium and seeded in 96-well tissue culture plates in 0.5% serum at 25,000 to 30,000 cells per well. After overnight incubation in 0.5% serum-containingmedium, cells were changed to serum-free medium and treated with test compound for 2 hr in a 5% CO2, 37° C. incubator. […] Lysates were incubated with shaking for 1 hr at room temperature. The plates were washed with TBST four times and then incubated with polyclonol anti-phosphotyrosine antibody at room temperature for 30 min. Excess anti-phosphotyrosine antibody was removed by rinsing the plate with TBST four times. Goat anti-rabbit IgG antibody was added to the ELISA plate for 30 min at room temperature followed by rinsing with TBST four more times.
(§3) The ability of different compound to inhibit different receptor tyrosine kinases was tested.

The next assay deals with HER2. Kind of assay: Receptor tyrosine kinase inhibition, HER2. Type of assay: cell-based. The following applies: for IC50: read-out: HER2 IC50. The method, then:
(§4) For western blotting, cells were plated in 2 mL growth medium into 6-well dishes (500,000 cells per well) and allowed to attach overnight. The medium was replaced with 2 mL MCDB 105 (UCSF Cell Culture Facility) supplemented with 1% FBS. The plates were then incubated overnight at 37° C., ambient CO2. […] After a 7 min incubation at room temperature with ligand, the plates were put on ice and washed three times with 1 mL ice-cold PBS plus 1 mM orthovanadate. Lysis was achieved by pipetting cells in 0.5 mL of buffer containing 50 mM Tris, pH 7.4, 10% glycerol, 1% NP-40, 2 mM EDTA, 1 mM sodium vanadate (Na3 VO4), 10 mM pyrophosphate, 1 mM PMSF, […]. A 300 μL aliquot of each lysate was immediately added to 100 μL 4×Laemmli sample buffer ([…] Tris pH 6.9, 20% glycerol, 7% SDS, 5 mM EDTA, 5% β-mercaptoethanol) containing phosphatase inhibitors, 2 mM Na3 VO4 and 10 mM pyrophosphate. Samples were boiled for 5 min, frozen in dry ice-ethanol, and stored at -80° C. Proteins were resolved by SDS-PAGE (Bio-Rad Miniprotean II) and transferred to nitrocellulose membrane (Schleicher & Schuell) at 120 volts for 1 hr at room temperature in buffer containing 25 mM Tris pH 8.3, 20% methanol, 0.2 M glycine, 0.1% SDS. The integrity of the protein-to-membrane transfer was determined by staining with 1% Ponceau S in 5% acetic acid for 5 min. After destaining in several distilled water rinses, the membrane was soaked overnight in blocking buffer containing 5% milk in Tris-buffered saline, 0.05% Tween 20. Phosphotyresine was detected by incubating the membrane (1 hr at room temperature) with an anti-phosphotyosine antiserum diluted in blocking buffer at 1:3000. For C6 cells, PDGF-β receptor content in the lysates was confirmed in duplicate sample lanes by western blotting using an antibody specific for PDGF-β receptor (UBI). The antibodies were visualized using ECL reagent from Amersham and by exposure to Fuji RX film.
(§5) For ELISA assays, cells were grown to 80-90% confluency in growth medium and seeded in 96-well tissue culture plates in 0.5% serum at 25,000 to 30,000 cells per well. After overnight incubation in 0.5% serum-containingmedium, cells were changed to serum-free medium and treated with test compound for 2 hr in a 5% CO2, 37° C. incubator. Cells were then stimulated with ligand for 5-10 min followed by lysis with HNTG (20 mM Hepes, 150 mM NaCl, 10% glycerol, 5 mM EDTA, 5 mM Na3 VO4 0.2% Triton X-100, and 2 mM NaPyr). Cell lysates (0.5 mg/well in PBS) were transferred to ELISA plates previously coated with receptor-specific antibody and which had been blocked with 5% milk in TBST (50 mM Tris-HCl pH 7.2, 150 mM NaCl and 0.1% Triton X-100) at room temperature for 30 min. Lysates were incubated with shaking for 1 hr at room temperature. The plates were washed with TBST four times and then incubated with polyclonol anti-phosphotyrosine antibody at room temperature for 30 min. Excess anti-phosphotyrosine antibody was removed by rinsing the plate with TBST four times. Goat anti-rabbit IgG antibody was added to the ELISA plate for 30 min at room temperature followed by rinsing with TBST four more times.
as §3

The target in assay [2] is T1, PDGFR (Homo sapiens, UniProt P09619). Briefly: PDGF-stimulated receptor phosphorylation in U1242 cells, ELISA. The assay is classed as cell-based. Also on record: U1242 (PDGF-β receptor); host or cells: U1242 MG glioma cells. The following applies: 100 ng/ml PDGF-BB; read-out: ELISA P-TYR U1242 IC50. How it is done:
as §5, with “Cell lysates (0.5 mg/well in PBS) were transferred to ELISA plates previously coated with receptor-specific antibody and which had been blocked with 5% milk in TBST (50 mM Tris-HCl pH 7.2, 150 mM NaCl and 0.1% Triton X-100) at room temperature for 30 min.” left out
U1242 MG cells were plated in 96-well plates at a concentration of 5×10^4 cells/well in cultured media containing 0.5% FBS. The cells were incubated for 24 hours. The cells were then treated with a particular compound for 2 hours followed by the addition of 100 ng/ml PDGF-BB and incubation for 10 minutes.
Cells were lysed in 0.2 M Hepes, 0.15 M NaCl, 10% V/V glycerol, 0.04% Triton X-100, 5 mM EDTA, 5 MM Na^+ vanadate and […] Na^+ pyrophosphate. Cell lysates were then added to an ELISA plate coated with an anti-PDGF receptor antibody (Genzyme). ELISA plates were coated at […] of antibody/well in […] of PBS for 18 hours at 4° C. prior to the addition of the lysate.
The lysate was incubated in the coated plates for 1 hour and then washed four times in TBST (35 mM Tris-HCl pH 7.0, 0.15 M NaCl, 0.1% Triton X-100). Anti-phosphotyrosine antibody ([…] in PBS) was added and the mixture was incubated for 30 minutes at room temperature. The wells were then washed four times in TBST, a secondary antibody conjugated to POD (TAGO) was added to each well, and the treated wells were incubated for 30 minutes at room temperature. The wells were then washed four times in TBST, ABTS/H2 O2 solution was added to each well and the wells were incubated for two minutes. Absorbance was then measured at 410 nm.
On the technique in general: An ELISA detects its analyte on a solid surface through an enzyme-linked reagent.

In another assay the target is T2, EGFR (Homo sapiens, UniProt P00533).
T2 construct: expressed in transfected cells; host or cells: NIH3T3 mouse fibroblasts, retroviral vector
T2 sequence (P00533 25-1210): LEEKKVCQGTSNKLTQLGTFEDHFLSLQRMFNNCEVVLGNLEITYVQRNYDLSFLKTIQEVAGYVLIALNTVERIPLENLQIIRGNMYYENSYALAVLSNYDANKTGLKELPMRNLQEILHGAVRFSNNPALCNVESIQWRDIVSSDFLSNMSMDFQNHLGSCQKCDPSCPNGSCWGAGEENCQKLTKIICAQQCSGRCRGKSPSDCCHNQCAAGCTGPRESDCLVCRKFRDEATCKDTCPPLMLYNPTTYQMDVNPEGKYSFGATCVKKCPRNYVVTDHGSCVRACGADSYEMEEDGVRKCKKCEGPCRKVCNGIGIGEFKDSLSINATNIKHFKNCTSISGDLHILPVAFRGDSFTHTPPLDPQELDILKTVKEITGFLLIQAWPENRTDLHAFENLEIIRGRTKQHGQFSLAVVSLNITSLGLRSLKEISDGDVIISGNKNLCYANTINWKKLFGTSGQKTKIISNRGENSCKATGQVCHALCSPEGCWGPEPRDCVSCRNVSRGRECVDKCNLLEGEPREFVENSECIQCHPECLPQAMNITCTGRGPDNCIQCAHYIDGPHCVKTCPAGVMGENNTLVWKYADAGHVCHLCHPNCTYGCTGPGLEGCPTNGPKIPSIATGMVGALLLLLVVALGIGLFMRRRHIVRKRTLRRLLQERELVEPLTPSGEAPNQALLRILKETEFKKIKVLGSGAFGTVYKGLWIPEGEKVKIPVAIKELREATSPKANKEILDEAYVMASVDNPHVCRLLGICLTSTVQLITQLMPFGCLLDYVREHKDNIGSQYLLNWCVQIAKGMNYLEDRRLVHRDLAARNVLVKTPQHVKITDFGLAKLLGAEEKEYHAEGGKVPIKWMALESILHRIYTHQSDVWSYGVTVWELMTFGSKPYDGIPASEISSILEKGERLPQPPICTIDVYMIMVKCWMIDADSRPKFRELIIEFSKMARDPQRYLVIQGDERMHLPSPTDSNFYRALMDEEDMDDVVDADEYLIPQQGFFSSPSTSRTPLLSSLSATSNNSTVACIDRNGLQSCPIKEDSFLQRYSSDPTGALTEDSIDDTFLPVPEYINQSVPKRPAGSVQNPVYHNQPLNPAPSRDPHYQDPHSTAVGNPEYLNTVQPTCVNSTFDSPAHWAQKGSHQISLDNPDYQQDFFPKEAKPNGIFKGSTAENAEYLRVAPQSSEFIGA
Briefly: Receptor tyrosine kinase inhibition, EGFR. Type of assay: cell-based. As to conditions: for IC50: read-out: EGFR ID50. How it is done: as §4, §5, §3

Assay [3] deals with T1, PDGFR. Kind of assay: Receptor tyrosine kinase inhibition, PDGFR. Type of assay: cell-based. Also on record: U1242 (PDGF-β receptor); host or cells: U1242 glioma cells (ELISA). The method, then:
as §1, §2, §3

Another assay concerns the target T3, FLK-1 (Mus musculus, UniProt P35918).
T3 construct: expressed in transfected cells; host or cells: NIH3T3 mouse fibroblasts, retroviral vector
Kind of assay: Receptor tyrosine kinase inhibition, FLK-1. The assay is classed as cell-based. The following applies: read-out: FLK-1 IC50. The method, then:
as §4, §5, §3

A further assay concerns C6 cells. Kind of assay: C6 SRB growth assay. As to conditions: Rattus norvegicus, C6; read-out: C6 SRB IC50. The assay is classed as cell-based, rat.
The target in a further assay is T4, PDGF-R (U1242) (Homo sapiens, UniProt P09619).
T4 construct: U1242 (PDGF-β receptor); host or cells: U1242 MG glioma cells
T4 sequence (P09619 33-1106): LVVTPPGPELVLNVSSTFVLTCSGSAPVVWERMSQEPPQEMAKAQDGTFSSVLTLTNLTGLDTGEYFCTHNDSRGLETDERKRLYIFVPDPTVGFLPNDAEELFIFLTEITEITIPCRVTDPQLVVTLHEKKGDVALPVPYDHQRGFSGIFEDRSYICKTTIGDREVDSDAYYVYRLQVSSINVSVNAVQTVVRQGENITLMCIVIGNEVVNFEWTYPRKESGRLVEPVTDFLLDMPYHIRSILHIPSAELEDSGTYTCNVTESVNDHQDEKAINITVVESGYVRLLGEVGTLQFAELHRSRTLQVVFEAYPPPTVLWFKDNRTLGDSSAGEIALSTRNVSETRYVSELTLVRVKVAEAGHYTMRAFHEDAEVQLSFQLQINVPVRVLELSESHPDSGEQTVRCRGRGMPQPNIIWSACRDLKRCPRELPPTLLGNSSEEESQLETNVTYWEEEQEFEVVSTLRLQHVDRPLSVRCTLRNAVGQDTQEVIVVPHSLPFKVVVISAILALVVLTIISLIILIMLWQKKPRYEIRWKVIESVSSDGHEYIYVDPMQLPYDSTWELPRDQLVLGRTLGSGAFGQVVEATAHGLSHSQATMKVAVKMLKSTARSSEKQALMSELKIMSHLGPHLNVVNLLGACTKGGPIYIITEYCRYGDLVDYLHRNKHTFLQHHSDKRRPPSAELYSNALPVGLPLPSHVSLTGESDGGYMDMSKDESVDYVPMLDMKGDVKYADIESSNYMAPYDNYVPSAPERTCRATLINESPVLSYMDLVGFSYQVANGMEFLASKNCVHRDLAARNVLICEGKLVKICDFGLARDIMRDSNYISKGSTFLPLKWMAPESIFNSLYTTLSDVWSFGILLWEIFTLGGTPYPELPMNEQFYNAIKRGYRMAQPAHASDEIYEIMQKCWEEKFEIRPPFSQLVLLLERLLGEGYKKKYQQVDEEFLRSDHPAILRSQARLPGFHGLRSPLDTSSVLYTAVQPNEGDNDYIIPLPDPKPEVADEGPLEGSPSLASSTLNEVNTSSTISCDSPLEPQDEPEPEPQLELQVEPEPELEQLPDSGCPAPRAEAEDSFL
Briefly: U1242 kinase (PDGF-R activity). The assay is classed as cell-based. The method, then:
as §1, §2
PDGF-R activity, C6 SRB, and in vivo efficacy were measured using the procedures described in the appendices above.

[4] abbreviates: W = done in Western assay; read-out: PDGFR IC50 (W).
[5] abbreviates: W = done in Western assay, read-out: U1242 KINASE IC50 (W).

T1 sequence (P09619 33-1106): as above
T3 sequence (P35918 20-1345): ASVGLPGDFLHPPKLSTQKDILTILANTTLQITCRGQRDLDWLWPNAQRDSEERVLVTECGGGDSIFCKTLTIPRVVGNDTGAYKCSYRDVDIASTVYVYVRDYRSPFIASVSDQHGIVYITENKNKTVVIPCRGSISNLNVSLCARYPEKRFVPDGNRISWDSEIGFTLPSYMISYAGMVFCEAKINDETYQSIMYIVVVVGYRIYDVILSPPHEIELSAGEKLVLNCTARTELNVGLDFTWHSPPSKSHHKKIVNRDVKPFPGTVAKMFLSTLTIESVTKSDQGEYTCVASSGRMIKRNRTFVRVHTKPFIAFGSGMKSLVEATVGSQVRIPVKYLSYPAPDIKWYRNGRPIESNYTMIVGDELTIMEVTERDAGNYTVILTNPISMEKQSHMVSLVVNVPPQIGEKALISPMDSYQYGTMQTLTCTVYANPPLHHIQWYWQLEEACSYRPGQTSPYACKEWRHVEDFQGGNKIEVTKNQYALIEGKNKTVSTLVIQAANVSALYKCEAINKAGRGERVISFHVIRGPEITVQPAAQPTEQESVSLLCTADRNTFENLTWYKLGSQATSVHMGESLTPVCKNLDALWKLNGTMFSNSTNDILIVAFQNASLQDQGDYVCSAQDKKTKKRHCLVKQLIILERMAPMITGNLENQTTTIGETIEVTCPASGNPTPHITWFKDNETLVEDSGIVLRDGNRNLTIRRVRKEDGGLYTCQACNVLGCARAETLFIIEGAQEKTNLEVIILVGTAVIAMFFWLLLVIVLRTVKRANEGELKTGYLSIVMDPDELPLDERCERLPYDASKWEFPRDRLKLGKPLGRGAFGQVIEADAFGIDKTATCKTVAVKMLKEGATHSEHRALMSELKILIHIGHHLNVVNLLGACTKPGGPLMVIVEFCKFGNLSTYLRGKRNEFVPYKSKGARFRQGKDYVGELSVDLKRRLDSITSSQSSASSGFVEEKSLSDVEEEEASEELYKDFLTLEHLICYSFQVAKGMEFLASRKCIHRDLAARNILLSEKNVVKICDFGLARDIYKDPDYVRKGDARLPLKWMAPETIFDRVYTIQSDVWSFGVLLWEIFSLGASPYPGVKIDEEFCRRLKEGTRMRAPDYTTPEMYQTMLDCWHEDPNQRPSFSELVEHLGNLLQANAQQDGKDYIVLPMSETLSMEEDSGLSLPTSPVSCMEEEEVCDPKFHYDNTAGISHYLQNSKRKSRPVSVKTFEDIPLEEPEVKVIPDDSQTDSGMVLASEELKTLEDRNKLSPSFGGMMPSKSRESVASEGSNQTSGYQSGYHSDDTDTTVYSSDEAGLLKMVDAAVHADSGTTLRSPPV

`N#CC(=Cc1ccc(O)c(O)c1)c1c(C#N)c(N)nn1-c1ccccc1` [Compound C10]: the “PDGF-R phosphorylation” value in the assay with PDGFR [1] is “effects EGF-4, PDGF-R, and HER2 phosphorylation”. Also, the IC50 in the assay with PDGFR [1] (setting [4]) and on PDGFR [2] was 25 µM throughout. Further, the “HER2 phosphorylation” value in the assay on HER2 was “effects EGF-4, PDGF-R, and HER2 phosphorylation”. The “EGF receptor phosphorylation” value at EGFR is “effects EGF-4, PDGF-R, and HER2 phosphorylation”.
As for `CC(C)(C)c1cc(C=C(C#N)c2[nH]nc(N)c2C#N)cc(C(C)(C)C)c1O` [Compound C13], the IC50 with HER2 was 29 µM; on PDGFR [3], 16 µM; on FLK-1, 3.3 µM; at EGFR, 16 µM.
Consider `N#CC(=Cc1c[nH]c2ccccc12)C(N)=O` [Compound D13], for which the IC50 in the assay with PDGFR [1] (setting [4]) was 30 µM; on FLK-1, > 50 µM; on PDGFR [2] it was 30 µM.
For the compound `CCOc1ccccc1NC(=O)C(=O)NN=Cc1ccc(O)c(O)c1` [Compound E14], the figures for the IC50 in the assay with PDGFR [1] (setting [4]), on FLK-1 and at PDGFR [2] were 10 µM, > 50 µM and 100 µM, respectively.
For `c1ccc(-c2cnc3ccccc3n2)cc1` [Compound G10], the IC50 is 10 µM with PDGFR [1] (setting [4]), > 50 µM at FLK-1 and 10 µM on PDGFR [2].
Consider `COc1cc2cc(-c3ccccc3)c(Cl)nc2cc1OC` [Compound G12], for which, in the assay on PDGFR [1], the “PDGF-R phosphorylation” value is on record as “inhibit PDGF-R phosphorylation”. Moreover, the results for the IC50 in the assay on PDGFR [1] (setting [4]), on FLK-1 and on PDGFR [2] were 10 µM, > 50 µM and 10 µM, respectively. In addition, the “HER2 phosphorylation” value in the assay on HER2 is “do not effect EGF or HER2 phosphorylation”. The “EGF receptor phosphorylation” value at EGFR is “do not effect EGF or HER2 phosphorylation”.
Take `O=[N+]([O-])c1ccc2ncc(-c3ccccc3)nc2c1` [Compound G23]: the IC50 with PDGFR [1] (read-out: PDGFR IC50 (W); W = done in Western assay) was 25 µM; with HER2, > 100 µM; on FLK-1 it was 325 µM; at EGFR, > 100 µM.
Consider `Cc1cc2ncc(Nc3cccc(Br)c3)nc2cc1C` [Compound G28], for which the IC50 was 4.5 µM in the assay with C6 cells and 16.4 µM on PDGF-R (U1242) (scndry, read-out: U1242 KINASE IC50 (scndry)).
For the compound `CC1c2nc3ccccc3c(=O)n2C(c2cccc(O)c2)N1Cc1ccccc1` (stereo not drawn) [Compound H12], the IC50 in the assay with PDGFR [1] (setting [4]) is 25 µM; in the assay on C6 cells, 19 µM; at PDGFR [2], 30 µM; at PDGF-R (U1242) (setting [5]), > 250 µM and 25 µM.
For `N#CC(=Cc1cc(O)c(O)c(Br)c1)C(=O)NCCCNC(=O)C(C#N)=Cc1cc(O)c(O)c(Br)c1` [Compound P10], the IC50 in the assay on PDGFR [1] (setting [4]) is 3 µM; in the assay with HER2, > 100 µM; on FLK-1, > 25 µM; in the assay on C6 cells it was 12 µM; at PDGF-R (U1242) (setting [5]), 3 µM; on EGFR, 31 µM.
Regarding `O=C(Nc1cc(C(F)(F)F)cc(C(F)(F)F)c1)c1cccs1` [Compound P12], the figures for the IC50 with PDGFR [1] (setting [4]), in the assay on HER2 and at FLK-1 were 25 µM, > 50 µM and > 50 µM, respectively.
In the case of `Cc1cc2ccccc2c[n+]1[O-]` [Compound P13], the IC50 is > 100 µM with C6 cells and 1.2 µM on PDGF-R (U1242) (read-out: U1242 KINASE IC50).
The matching figures for `COc1cccc(NC(=S)C(C#N)C(=O)N2CCCC2)c1` (stereo not drawn) [Compound P21, N-3-methoxyphenyl (2-cyano-2-N-pyrrolidinycarbonyl) thioacetamide]: > 25 µM and 93 µM.
Turning to `N#CC(=Cc1ccc(O)c(O)c1)C(=O)NCc1ccc(F)cc1` [Compound P25], the IC50 in the assay on PDGFR [1] (setting [4]) is 30 µM; in the assay with HER2, > 100 µM; at FLK-1, > 500 µM; on EGFR, > 100 µM.
